Assay results reported in PubChem BioAssay AID1259407 (Chemical Carcinogenesis Research Information System (CCRIS), 2018).
Active and inactive are the calls of the source. How the calls were made is not given here.

Test system: CCRIS mutagenicity, Ames/micronucleus/aberration tests
Test: CCRIS mutagenicity studies
[1] = Test System: AMES SALMONELLA TYPHIMURIUM, Strain/Indicator: TA98, Metabolic Activation: NONE, Method: STANDARD PLATE
[2] = Test System: AMES SALMONELLA TYPHIMURIUM, Strain/Indicator: TA100, Metabolic Activation: NONE, Method: STANDARD PLATE

What does the source list for CCCCCCCCCCCC[S][Sn]([CH2]CCC)([CH2]CCC)[S]CCCCCCCCCCCC?
mutagenic call (Test System: AMES SALMONELLA TYPHIMURIUM, Strain/Indicator: TA97, Metabolic Activation: HAMSTER, LIVER, S-9, AROCLOR 1254 (10%), Method: PREINCUBATION): inactive; negative; mutagenic call (Test System: AMES SALMONELLA TYPHIMURIUM, Strain/Indicator: TA97, Metabolic Activation: HAMSTER, LIVER, S-9, AROCLOR 1254 (30%), Method: PREINCUBATION): inactive; negative; mutagenic call (Test System: AMES SALMONELLA TYPHIMURIUM, Strain/Indicator: TA97, Metabolic Activation: NONE, Method: PREINCUBATION): inactive; negative; mutagenic call (Test System: AMES SALMONELLA TYPHIMURIUM, Strain/Indicator: TA97, Metabolic Activation: RAT, LIVER, S-9, AROCLOR 1254 (10%), Method: PREINCUBATION): inactive; negative; mutagenic call (Test System: AMES SALMONELLA TYPHIMURIUM, Strain/Indicator: TA97, Metabolic Activation: RAT, LIVER, S-9, AROCLOR 1254 (30%), Method: PREINCUBATION): inactive; negative; mutagenic call (Test System: AMES SALMONELLA TYPHIMURIUM, Strain/Indicator: TA98, Metabolic Activation: HAMSTER, LIVER, S-9, AROCLOR 1254 (10%), Method: PREINCUBATION): inactive; negative; mutagenic call (Test System: AMES SALMONELLA TYPHIMURIUM, Strain/Indicator: TA98, Metabolic Activation: HAMSTER, LIVER, S-9, AROCLOR 1254 (30%), Method: PREINCUBATION): inactive; negative; mutagenic call (Test System: AMES SALMONELLA TYPHIMURIUM, Strain/Indicator: TA98, Metabolic Activation: NONE, Method: PREINCUBATION): inactive; negative; mutagenic call (Test System: AMES SALMONELLA TYPHIMURIUM, Strain/Indicator: TA98, Metabolic Activation: RAT, LIVER, S-9, AROCLOR 1254 (10%), Method: PREINCUBATION): inactive; negative; mutagenic call (Test System: AMES SALMONELLA TYPHIMURIUM, Strain/Indicator: TA98, Metabolic Activation: RAT, LIVER, S-9, AROCLOR 1254 (30%), Method: PREINCUBATION): inactive; negative; mutagenic call (Test System: AMES SALMONELLA TYPHIMURIUM, Strain/Indicator: TA100, Metabolic Activation: HAMSTER, LIVER, S-9, AROCLOR 1254 (10%), Method: PREINCUBATION): inactive; negative; mutagenic call (Test System: AMES SALMONELLA TYPHIMURIUM, Strain/Indicator: TA100, Metabolic Activation: HAMSTER, LIVER, S-9, AROCLOR 1254 (30%), Method: PREINCUBATION): inactive; negative; mutagenic call (Test System: AMES SALMONELLA TYPHIMURIUM, Strain/Indicator: TA100, Metabolic Activation: NONE, Method: PREINCUBATION): inactive; negative; mutagenic call (Test System: AMES SALMONELLA TYPHIMURIUM, Strain/Indicator: TA100, Metabolic Activation: RAT, LIVER, S-9, AROCLOR 1254 (10%), Method: PREINCUBATION): inactive; negative; mutagenic call (Test System: AMES SALMONELLA TYPHIMURIUM, Strain/Indicator: TA100, Metabolic Activation: RAT, LIVER, S-9, AROCLOR 1254 (30%), Method: PREINCUBATION): inactive; negative; mutagenic call (Test System: AMES SALMONELLA TYPHIMURIUM, Strain/Indicator: TA1535, Metabolic Activation: HAMSTER, LIVER, S-9, AROCLOR 1254 (10%), Method: PREINCUBATION): inactive; negative; mutagenic call (Test System: AMES SALMONELLA TYPHIMURIUM, Strain/Indicator: TA1535, Metabolic Activation: HAMSTER, LIVER, S-9, AROCLOR 1254 (30%), Method: PREINCUBATION): inactive; negative; mutagenic call (Test System: AMES SALMONELLA TYPHIMURIUM, Strain/Indicator: TA1535, Metabolic Activation: NONE, Method: PREINCUBATION): inactive; negative; mutagenic call (Test System: AMES SALMONELLA TYPHIMURIUM, Strain/Indicator: TA1535, Metabolic Activation: RAT, LIVER, S-9, AROCLOR 1254 (10%), Method: PREINCUBATION): inactive; negative; mutagenic call (Test System: AMES SALMONELLA TYPHIMURIUM, Strain/Indicator: TA1535, Metabolic Activation: RAT, LIVER, S-9, AROCLOR 1254 (30%), Method: PREINCUBATION): inactive; negative

Which results are given for C[C@H]1C=C(C=O)C(C=O)=C[C@]2(O)CC(C)(C)C[C@H]12?
mutagenic call [1]: active; positive; mutagenic call [2]: active; positive; mutagenic call (Test System: AMES SALMONELLA TYPHIMURIUM, Strain/Indicator: TA2637, Metabolic Activation: NONE, Method: STANDARD PLATE): inactive; negative

O=C(O)CCc1ccccc1 was tested. Which mutagenic call (Test System: AMES SALMONELLA TYPHIMURIUM, Strain/Indicator: TA98, Metabolic Activation: HAMSTER, LIVER, S-9, AROCLOR 1254, Method: STANDARD PLATE) did it give?
Its mutagenic call is “inactive; negative”.

What about the mutagenic call [1] of the same compound?
The mutagenic call was “inactive; negative”.

What about the mutagenic call (Test System: AMES SALMONELLA TYPHIMURIUM, Strain/Indicator: TA98, Metabolic Activation: RAT, LIVER, S-9, AROCLOR 1254, Method: STANDARD PLATE) of the same compound?
The mutagenic call was “inactive; negative”.

And the mutagenic call (Test System: AMES SALMONELLA TYPHIMURIUM, Strain/Indicator: TA100, Metabolic Activation: HAMSTER, LIVER, S-9, AROCLOR 1254, Method: STANDARD PLATE)?
Its mutagenic call is “inactive; negative”.

And the mutagenic call [2]?
The mutagenic call was “inactive; negative”.

What about the mutagenic call (Test System: AMES SALMONELLA TYPHIMURIUM, Strain/Indicator: TA100, Metabolic Activation: RAT, LIVER, S-9, AROCLOR 1254, Method: STANDARD PLATE) of the same compound?
The mutagenic call was “inactive; negative”.

And the mutagenic call (Test System: AMES SALMONELLA TYPHIMURIUM, Strain/Indicator: TA1535, Metabolic Activation: HAMSTER, LIVER, S-9, AROCLOR 1254, Method: STANDARD PLATE)?
The mutagenic call was “inactive; negative”.

And the mutagenic call (Test System: AMES SALMONELLA TYPHIMURIUM, Strain/Indicator: TA1535, Metabolic Activation: NONE, Method: STANDARD PLATE)?
Its mutagenic call is “inactive; negative”.

What about the mutagenic call (Test System: AMES SALMONELLA TYPHIMURIUM, Strain/Indicator: TA1535, Metabolic Activation: RAT, LIVER, S-9, AROCLOR 1254, Method: STANDARD PLATE) of the same compound?
Its mutagenic call is “inactive; negative”.

What about the mutagenic call (Test System: AMES SALMONELLA TYPHIMURIUM, Strain/Indicator: TA1537, Metabolic Activation: HAMSTER, LIVER, S-9, AROCLOR 1254, Method: STANDARD PLATE) of the same compound?
Its mutagenic call is “inactive; negative”.

What about the mutagenic call (Test System: AMES SALMONELLA TYPHIMURIUM, Strain/Indicator: TA1537, Metabolic Activation: NONE, Method: STANDARD PLATE) of the same compound?
Its mutagenic call is “inactive; negative”.

What about the mutagenic call (Test System: AMES SALMONELLA TYPHIMURIUM, Strain/Indicator: TA1537, Metabolic Activation: RAT, LIVER, S-9, AROCLOR 1254, Method: STANDARD PLATE) of the same compound?
The mutagenic call was “inactive; negative”.

What about the mutagenic call (Test System: AMES SALMONELLA TYPHIMURIUM, Strain/Indicator: TA1538, Metabolic Activation: HAMSTER, LIVER, S-9, AROCLOR 1254, Method: STANDARD PLATE) of the same compound?
Its mutagenic call is “inactive; negative”.

What about the mutagenic call (Test System: AMES SALMONELLA TYPHIMURIUM, Strain/Indicator: TA1538, Metabolic Activation: NONE, Method: STANDARD PLATE) of the same compound?
The mutagenic call was “inactive; negative”.

What about the mutagenic call (Test System: AMES SALMONELLA TYPHIMURIUM, Strain/Indicator: TA1538, Metabolic Activation: RAT, LIVER, S-9, AROCLOR 1254, Method: STANDARD PLATE) of the same compound?
The mutagenic call was “inactive; negative”.

What about the mutagenic call (Test System: MOUSE LYMPHOMA, Strain/Indicator: L5178Y (TK+/TK-), Metabolic Activation: NONE, Method: SUSPENSION/PLATE) of the same compound?
Its mutagenic call is “inactive; negative. reevaluation of results: negative”.

What about the mutagenic call (Test System: MOUSE LYMPHOMA, Strain/Indicator: L5178Y (TK+/TK-), Metabolic Activation: RAT, LIVER, S-9, AROCLOR 1254, Method: SUSPENSION/PLATE) of the same compound?
Its mutagenic call is “inactive; negative. reevaluation of results: negative”.
